According to publication PMC13357423 (Frontiers in Microbiology, 2026):
≈ marks a conversion by molar mass, not a printed value. Entries after “also recorded” stand apart in the source; their conditions may differ. Like-named read-outs stand apart in the source and are kept apart here.

Legend:
Mtb H37Rv [1] = test: microbe, parasite or virus in culture; format: cell-based; conditions: Mycobacterium tuberculosis, read-out: MIC BDQ values in six carbon sources
Mtb Rv0678 RAVs = test system: Mtb Rv0678 RAVs; design: method as in Sonnenkalb et al., 2023; Villellas et al., 2017; conditions: Rv0678 RAVs in baseline isolates of MDR-TB patients; ref Sonnenkalb et al., 2023; Villellas et al., 2017; cited from earlier work
M. tuberculosis = test system: M. tuberculosis; design: method as in Lounis et al. (2016); conditions: polypropylene plates in comparison with polystyrene; ref Lounis et al. (2016); cited from earlier work
[2] = Effect of tyloxapol on TBAJ-587 recovery in ST broth without bacteria; format: physicochemical; conditions: ST broth with vs without tyloxapol, no bacteria, polystyrene flasks, 28 days
Protocol: A low (0.16 mg/L) and a high concentration (1.6 mg/L) were tested and samples taken and quantified at 0, 1, 10 and 28 days after compound addition. Parallel conditions with propranolol (2 μM and 0.2 μm) were included as a drug control; two time-points were sampled for quantification at days 0 and 28 after compound addition. All 648 samples were measured in technical duplicates and verapamil was used as internal standard.

[3] = test system: regrowth TKA isolates (Mtb H37Rv); test: microbe, parasite or virus in culture; format: cell-based, Mycobacterium tuberculosis; conditions: for MIC: Mycobacterium tuberculosis
Mtb H37Rv [4] = test: Dose response time kill assays (TKA), CFU enumeration; format: cell-based, Mycobacterium tuberculosis
[5] = concentrations equal or higher than 5x MIC

SMILES	MIC (Mtb H37Rv [1])	increase in MIC (Mtb Rv0678 RAVs)	increase in the MIC (M. tuberculosis)	effect of 0.05% tyloxapol on recovery [2]	MIC increase compared to the wild-type baseline [3]	MIC ([3]; H37RV)	MIC ([3]; read-out: MIC values for TBAJ-587, all regrowth isolates)	effect in TKA (Mtb H37Rv [4]; 1x MIC and 2x MIC)	bacterial regrowth (Mtb H37Rv [4]; 1x MIC and 2x MIC, day 28)	bacterial regrowth after 28 days of treatment (Mtb H37Rv [4]; [5])	time to cleared cultures (bacterial counts under the limit of quantification) (Mtb H37Rv [4]; [5])	effect in TKA (Mtb H37Rv [4]; concentrations equal to and above 5x MIC)
COc1nc2ccc(Br)cc2cc1[C@@H](c1ccccc1)[C@@](O)(CCN(C)C)c1cccc2ccccc12 [BDQ, bedaquiline]	0.063 to 0.25 µg/mL (≈ 0.113 to 0.45 µM)	2–8 fold	4 fold	–	–	–	–	–	–	–	–	–
CC(C)NCC(O)COc1cccc2ccccc12 (stereo not shown) [Propranolol, propranolol, reference compound]	–	–	–	did not affect its recovery	–	–	–	–	–	–	–	–
COc1cc([C@](O)(CCN(C)C)[C@@H](c2cc3cc(Br)ccc3nc2OC)c2cccc(OC)c2F)cc(OC)n1 [TBAJ-587]	–	–	–	higher TBAJ-587 recovery	4 fold	0.125 µg/mL (≈ 0.203 µM)	0.125 to 0.25 µg/mL (≈ 0.203 to 0.407 µM)	bacteriostatic effect	resumed growth after 28 days; also recorded: bacterial regrowth by day 28	without bacterial regrowth	≤ 7 days	bactericidal effect
